Key:
[1] = test system: LPS-induced NO production in RAW264.7 cells; assay: Inhibition of LPS-induced NO production (Griess reagent); assay type: cell-based, mouse; conditions: for LPS-induced NO release: LPS-stimulated, result in words; for IC50: Mus musculus, 1 h pretreatment, then LPS 24 h, mean ± SD (n = 3)
Method: NO is an important inflammatory mediator and is overproduced and secreted out of mouse macrophages in response to bacterial lipopolysaccharide. To evaluate the anti-inflammatory activity of hesperetin derivatives, the secretion level of NO was detected in the medium of RAW264.7 cells after LPS stimulated with Griess reagent. Before the cells were treated with LPS (1 μg/mL) for 24 h, pretreatment with the compounds for 1 hour. […] All hesperetin derivatives could decrease the release of NO induced by LPS. […] While extended the length of the amide side chain and the inhibitory activities increased (4d > 4c > 4a; 4e > 4b). […] On the other hand, the cavity was medium-sized, large enough to accommodate cyclopentyl and propyl groups, but not enough to accommodate cyclohexyl and butyl ones (4a < 4b < 4d > 4f; 4k > 4l).
Nitrite levels were determined using the Griess method for NO has a short half-life and is oxidized to stable nitrite. RAW 264.7 cells were plated at a density of 2 × 10^5 per well in a 24-well culture plate and incubated in a 37 °C humidified incubator (5% CO2). After overnight Cultured, discarded the supernatant, added pre-configured compounds of different concentrations to the 24-well plate, and added the same one-thousandth of the DMSO solvent as the control to the experimental group for 1 h. Then LPS was added to experimental and model groups at a concentration of […] for 24 h compared to vehicle control. Following treatment, media was collected and centrifuged at 2000 rpm for 5 min to remove cellular debris. The medium from treated cells was removed and placed into a 96-well plate (50 µL per well) and was measured in culture supernatant using Griess reagent at 540 nm. The IC50 values of compounds were calculated by SPSS23.

TNF-α = TNF-α level in medium of LPS-induced RAW264.7 cells (ELISA); assay type: cell-based, mouse; conditions: 10 μM compound (Figure 2A-C)
Source text: (§1) When inflammation occurs, LPS-activated macrophages produce a variety of inflammatory cytokines, including TNF-α, interleukins (ILs), and nitric oxide (NO), which show a host shielding effect and also accelerate the occurrence of the inflammatory response during inflammatory situations. To evaluate the anti-inflammatory activity of hesperetin derivatives, the levels of TNF-α, IL-6 and IL-1β in the medium of LPS-induced macrophage cells were detected by enzyme linked immunosorbent assay (ELISA). […] Later, we will select one of them as lead compound and modify the structure at the 3’-OH, 5-OH and 4-carbonyl positions. […] Compounds 4d (MW = 401) and 4k (MW = 427) have similar structures and should have the same mechanism. Therefore, compound 4d with lower molecular weight was selected to further explore the mechanism(s) of the anti-inflammatory effect.
(§2) RAW264.7 cells (2 × 10^5 cells/well) were cultured in 24-well plate and pretreated with 10 μM of compounds for 1 h. And then stimulated with LPS, […], for 24 h. The cell culture supernatant were collected and the levels of TNF-α, IL-6 and IL-1β were determined using the ELISA kit (Elabscience, Wuhan, China). The optical density (OD) was measured at 540 nm. The results were analyzed using Origin Pro 8 (OriginLab, Northampton, MA, USA).

IL-6 = IL-6 level in medium of LPS-induced RAW264.7 cells (ELISA); assay type: cell-based, mouse; conditions: 10 μM compound (Figure 2A-C)
Source text: as §1, §2

IL-1β = IL-1β level in medium of LPS-induced RAW264.7 cells (ELISA); assay type: cell-based, mouse; conditions: 10 μM compound (Figure 2A-C)
Source text: as §1, §2

[2] = test system: LPS-induced NO production in RAW264.7 cells; assay: Inhibition of LPS-induced NO production (Griess reagent); assay type: cell-based; conditions: Mus musculus, 10 μM compound, 1 h pretreatment, then LPS (1 μg/mL) 24 h, mean ± SD (n = 3)

In the case of `COc1ccc([C@@H]2CC(=O)c3c(O)cc(OCC(=O)NC(C)C)cc3O2)cc1O` [Compound 4e, 7-O-(2-(Isopropylamino)-2-oxoethyl)hesperetin], the “LPS-induced NO release” value [1] is reported as “significantly alleviated the increase of LPS-induced NO release”, the IC50 [1] is reported as 26.1 ± 1.21 µM and the “inhibitory effect on TNF-α production” value (TNF-α) is reported as “greater inhibitory effects than indomethacin (Ind) and celecoxib (Cel)”. For the same compound, the “inhibitory effect on IL-6 production” value (IL-6) was “greater inhibitory effects than indomethacin (Ind) and celecoxib (Cel)”, the “inhibitory effect on IL-1β production” value (IL-1β) was “greater inhibitory effects than indomethacin (Ind) and celecoxib (Cel)” and the melting point was 157.6 to 160.4 °C. It also gave an inhibition at 10 µM [2] of 27.1 ± 5.88%.
Work on `COc1ccc([C@@H]2CC(=O)c3c(O)cc(OCC(=O)N4CCCC4)cc3O2)cc1O` [Compound 5a, 7-O-(2-(Pyrrolidin-1-yl)-2-oxoethyl)hesperetin] yielded an IC50 [1] of 36.2 ± 5.83 µM, a melting point of 127.1 to 130.5 °C and an inhibition at 10 µM [2] of 18.9 ± 4.02%.
For `COc1ccc([C@@H]2CC(=O)c3c(O)cc(OCC(=O)NC4CCCC4)cc3O2)cc1O` [Compound 4k, 7-O-(2-(Cyclopentylamino)-2-oxoethyl)hesperetin], the “LPS-induced NO release” value [1] was “significantly alleviated the increase of LPS-induced NO release”, the IC50 [1] was 16.6 ± 0.85 µM and the “inhibitory effect on TNF-α production” value (TNF-α) was “greater inhibitory effects than indomethacin (Ind) and celecoxib (Cel)”. The “inhibitory effect on IL-6 production” value (IL-6) was “greater inhibitory effects than indomethacin (Ind) and celecoxib (Cel)”, the “inhibitory effect on IL-1β production” value (IL-1β) was “greater inhibitory effects than indomethacin (Ind) and celecoxib (Cel)” and the melting point was 187.5 to 190 °C. The inhibition at 10 µM [2] was 40.9 ± 0.64%.
In the case of `COc1ccc([C@@H]2CC(=O)c3c(O)cc(OCC(=O)NC4CCCCC4)cc3O2)cc1O` [Compound 4l, 7-O-(2-(Cyclohexylamino)-2-oxoethyl)hesperetin], the IC50 [1] is reported as 33.3 ± 3.3 µM, the melting point is reported as 181.9 to 184.1 °C and the inhibition at 10 µM [2] is reported as 20.3 ± 2%.
Compound `COc1ccc([C@@H]2CC(=O)c3c(O)cc(OCC(=O)N4CCCC(CO)C4)cc3O2)cc1O` (some centres unmarked) [Compound 6b, 7-O-(2-(3-(Hydroxymethyl)piperidin-1-yl)-2-oxoethyl)hesperetin] has an IC50 [1] of 31.1 ± 2.93 µM, a melting point of 168.6 to 171.8 °C and an inhibition at 10 µM [2] of 19.3 ± 1.94%.
Work on `COc1ccc([C@@H]2CC(=O)c3c(O)cc(OCC(=O)NC4CC4)cc3O2)cc1O` [Compound 4j, 7-O-(2-(Cyclopropylamino)-2-oxoethyl)hesperetin] yielded an IC50 [1] of 41.7 ± 2.79 µM, a melting point of 190.8 to 193.1 °C and an inhibition at 10 µM [2] of 9.57 ± 5.53%.
`COc1ccc([C@@H]2CC(=O)c3c(O)cc(OCC(=O)NCCN(C)C)cc3O2)cc1O` [Compound 7b, 7-O-(2-((2-(Dimethylamino)ethyl)amino)-2-oxoethyl)hesperetin] gave an IC50 [1] of 92.5 ± 33.7 µM, a melting point of 137.1 to 139.4 °C and an inhibition at 10 µM [2] of 12.4 ± 0.67%.
For `COc1ccc([C@@H]2CC(=O)c3c(O)cc(OCC(=O)NCCN4CCOCC4)cc3O2)cc1O` [Compound 7c, 7-O-(2-((2-Mmorpholinoethyl)amino)-2-oxoethyl) hesperetin], the IC50 [1] was 42.4 ± 2.06 µM, the melting point was 160.7 to 162.9 °C and the inhibition at 10 µM [2] was 18.4 ± 4.55%.
For `CCNC(=O)COc1cc(O)c2c(c1)O[C@H](c1ccc(OC)c(O)c1)CC2=O` [Compound 4b, 7-O-(2-(Ethylamino)-2-oxoethyl)hesperetin], the IC50 [1] was 29.9 ± 3.4 µM, the melting point was 171.2 to 173.6 °C and the inhibition at 10 µM [2] was 21.5 ± 1.29%.

Reference: publication PMC6832651, “Design, Synthesis and Investigation of the Potential Anti-Inflammatory Activity of 7-O-Amide Hesperetin Derivatives” (Molecules, 2019)
